# In patent US6929927B2, “Method of evaluating antifungal agent” (Pola Chemical Industries Inc., priority 2000, dated 2005):
# System: Trichophyton mentagropytes TIMM 2789
# Assay: MIC by microdilution method in 96-well plates, inactivation of agents by lecithin and Tween 80
# Type: cell-based
# Conditions: TIMM2789, 168 h, 7 days
# Experimental: MIC (minimum inhibitory concentration) was measured by means of the microdilution method by using 96-well plates to investigate the inactivation of respective agents caused by lecithin and Tween 80. The following four media were used. That is, a Sabouraud liquid medium (SDB) as a base medium, a medium obtained by adding 0.7% Tween 80 to SDB, a medium obtained by adding 1% lecithin to SDB, and a medium obtained by adding 0.7% Tween 80 and 1% lecithin to SDB were used. The following agents were used. That is, lanoconazole, bifonazole, and terbinafine were used. The following test strain was used. That is, Trichophyton mentagropytes TIMM 2789 (available from Institute of Medical Mycology of Teikyo University), which is generally used for the animal infection experiment, was used. The cultivation was performed at 28° C. for 7 days, while the microbial concentration upon the inoculation was about 10^4 conidia/ml. After the cultivation, it was regarded that MIC (μg/ml) was represented by the minimum agent concentration of the plate on which no microbial growth was observed by visual observation.
# [1] = Sabouraud liquid medium (SDB), additive none, 28° C.
"MIC (SDB with 0.7% Tween 80, 28° C.) [µg/mL]","MIC (SDB with 1% lecithin, 28° C.) [µg/mL]",MIC [1] [µg/mL],Compound
> 25,> 25,1.56,"c1ccc(-c2ccc(C(c3ccccc3)n3ccnc3)cc2)cc1 (stereo not drawn) [Bifonazole, bifonazole]"
0.312,0.078,≤ 0.005,"N#C/C(=C1/SCC(c2ccccc2Cl)S1)n1ccnc1 (stereo not drawn) [Lanoconazole, lanoconazole]"
0.312,0.078,≤ 0.005,"CN(C/C=C/C#CC(C)(C)C)Cc1cccc2ccccc12 [Terbinafine, terbinafine]"
